Laboratory results: paper PMC10179701, “Towards Protection of Nucleic Acids from Herbicide Attack: Self-Assembly of Betaines Based on Pillar[5]arene with Glyphosate and DNA” (International Journal of Molecular Sciences, 2023)
Marks after values point to notes of the source that are not given here.

Key:
DNA from salmon sperm = experiment: UV-Vis spectrophotometric titration, association with DNA from salmon sperm; assay type: binding; settings: 1:1 complex, Tris-HCl buffer pH 7.44, CDNA 2.5 × 10^–7 M, BindFit
Protocol: The interaction of GIS with a series of synthesized pillar[5]arenes 1–4 and DNA was studied by UV-Vis spectroscopy. UV-Vis spectroscopy is a universal method to study the complex properties of synthetic receptors. The interaction of GIS with DNA from salmon sperm was initially studied (Figure 5). DNA from salmon sperm was chosen as a model substrate due to its relatively low molecular weight and small size. The experiments were carried out in a Tris-HCl buffer system (pH = 7.44).
The association constants were determined by spectrophotometric titration to quantify the interaction of DNA with GIS. The UV-Vis spectra of the DNA–GIS system were recorded in such a way that the DNA concentration remained constant (2.5 × 10^–7 M), and the herbicide concentration ratio increased from 1:0.3 to 1:10 (Figure 5b). The obtained experimental data were processed by the BindFit program. The association constant of a 1:1 complex was calculated (Figure S23). The logarithm of the association constant of DNA with GIS was determined as lgKa = 4.92. […] However, in this case, the association constant of the complexes was determined with a large error.
Further, the interaction of macrocycles 1–4 with the DNA from salmon sperm in Tris-HCl was studied by UV-Vis spectroscopy. […] The association constant of compound 4-DNA complex was determined by spectrophotometric titration. […] The logarithm of the association constant of pillar[5]arene 4 with the DNA was determined as lgKa (4–DNA) = 5.24.
The association constant of compound 1-DNA complex was also determined by spectrophotometric titration (Figure S25b). The logarithm of the association constant of pillar[5]arene 1 with DNA was determined as lgKa(1–DNA) = 4.88 (Figure S27). […]
buffer solution. The UV spectra of the solutions were then recorded. The stability constant of complex was calculated by Bindfit. […]
volume of 3 mL with Tris‐HCl buffer solution. The UV spectra of the solutions were then recorded. The stability constant of each complex was calculated by Bindfit. […]
stability constant of complex was calculated by Bindfit. […]

[1] = Dynamic light scattering of macrocycle aggregates in water; assay type: physicochemical; settings: H2O, 298 K
Protocol: The next stage of the work was the study of aggregation properties of both previously synthesized ester derivatives of amino acids 1 and 2, and macrocyclic betaine derivatives 3 and 4 by dynamic light scattering (DLS). The study was carried out in water in the 1 × 10^–6–1 × 10^–4 M concentration range (Figures S11–S22). The size of associates increases with decreasing macrocycle 1 concentration in solution (Table 1). A different pattern is observed for betaine derivative 3. Thus, the particles become coarser, and the polydispersity index (PDI) of the systems increased with an increase in compound 3 concentration, which is probably due to the formation of β-sheets by oligopeptide substituents. The presence of two oppositely charged fragments in one substituent leads to the fact that compound 3 becomes similar to surfactant molecules in terms of its aggregation properties.

A549 cells [2] = experiment: MTT test, A549 cells; settings: for IC50: A549, MTT, 24 h; for cytotoxic activity: A549, concentration range 2–100 μg/mL
Protocol: (§1) The next stage of this work was the study of pillar[5]arenes 1–4 ability to inhibit the viability and proliferative activity of embryonic lung epithelial (LEC) and human lung adenocarcinoma (A549) cells using the MTT test.
(§2) Further, the ability of GIS to inhibit the viability and proliferative activity of LEC and A549 cells was studied by the MTT test. […] The average inhibitory concentration (IC50) was calculated for GIS (Table 3). […]
(§3) 1.6. Cytotoxicity of pillar[5]arenes 1–4, GIS and their mixtures on A549 and LEC Cell Lines […]
(§4) activity of LEC cells and A549 cells was investigated using the MTT test according to [2]. A549 – human alveolar adenocarcinoma cell line (ATCC, Rockville, Maryland, USA) and cow embryo lung epithelial (LEC) cells (Animal Cell Culture Collection of Russian Academy of Agricultural Science, Kazan, Russia) were cultured in DMEM (GIBCO, Waltham, MA, USA) medium supplemented with 10% serum and 100 units/mL of penicillin (PanEco, Moscow, Russia) and streptomycin (PanEco, Moscow, Russia) in a humidified atmosphere with 5% CO2 at 37 °C. Cells were seeded in 96‐well plates at a concentration of 10^4 cells/well. After 24 h of cultivation, the medium was removed from the wells and replaced with a fresh one with the addition of the test substances. The volume of the culture medium in the wells was 100
(§5) μL. After 24 h incubation of cells in the presence of substances, the medium in the wells was replaced with a fresh one containing MTT reagent at a final concentration of 0.5 mg/mL. The cells were incubated with MTT for 4 h at 37 °C in an atmosphere of 5% CO2. Then, the medium was aspirated from the wells and 100 μL of dimethyl sulfoxide was added. Probes were incubated at 37 °C for 15 min in the dark for the formazan crystals to dissolve. The optical density of the formazan solution in the wells was measured using a plate reader (BioRad xMarkTM Microplate Spectrophotometer, USA) at a wavelength of 570 nm.
(§6) Three series of experiments were carried out with at least 8 replications for each variant in the series. […]

LEC cells = experiment: MTT test, LEC cells; settings: for IC50: MTT, 24 h; for cytotoxic activity: concentration range 2–100 μg/mL
Protocol: as §1, §2, §3, §4, §5, §6

A549 cells [3] = experiment: MTT assay, combined action of macrocycles with GIS on A549 cells; assay type: cell-based, human; settings: A549, pillararene 1 × 10^–5 M with GIS 3.47 × 10^–2 M
Protocol: The ability to inhibit the viability and proliferative activity of A549 cells of macrocycles 1–4 in the presence of GIS was studied using the MTT assay. […] The developed approach opens up the possibility of creating pillar[5]arene-based herbicide antidotes. […]
fresh one with the addition of the test substances.
Then, the medium was aspirated from the wells
and 100 μL of dimethyl sulfoxide was added.
the formazan crystals to dissolve. […]
substances. […] After 24 h of incubation cells were […]

In the case of `CCOC(=O)CNC(=O)CNC(=O)C[N+](C)(C)CCCNC(=O)COc1cc2c(OCC(=O)NCCC[N+](C)(C)CC(=O)NCC(=O)NCC(=O)OCC)cc1Cc1cc(OCC(=O)NCCC[N+](C)(C)CC(=O)NCC(=O)NCC(=O)OCC)c(cc1OCC(=O)NCCC[N+](C)(C)CC(=O)NCC(=O)NCC(=O)OCC)Cc1cc(OCC(=O)NCCC[N+](C)(C)CC(=O)NCC(=O)NCC(=O)OCC)c(cc1OCC(=O)NCCC[N+](C)(C)CC(=O)NCC(=O)NCC(=O)OCC)Cc1cc(OCC(=O)NCCC[N+](C)(C)CC(=O)NCC(=O)NCC(=O)OCC)c(cc1OCC(=O)NCCC[N+](C)(C)CC(=O)NCC(=O)NCC(=O)OCC)Cc1cc(OCC(=O)NCCC[N+](C)(C)CC(=O)NCC(=O)NCC(=O)OCC)c(cc1OCC(=O)NCCC[N+](C)(C)CC(=O)NCC(=O)NCC(=O)OCC)C2.[Br-].[Br-].[Br-].[Br-].[Br-].[Br-].[Br-].[Br-].[Br-].[Br-]` [Compound 1], the “lgKa, logarithm of the association constant with DNA” value (DNA from salmon sperm) is reported as 4.88, the “polydispersity index (PDI)” value ([1]; 1 × 10^–4 M) is reported as 0.37 and the “size of aggregates d” value ([1]; 1 × 10^–4 M) is reported as 249 ± 17 nm. The “polydispersity index (PDI)” value ([1]; 1 × 10^–5 M) was 0.35, the “size of aggregates d” value ([1]; 1 × 10^–5 M) was 286 ± 57 nm and the “polydispersity index (PDI)” value ([1]; 1 × 10^–6 M) was 0.39. The “size of aggregates d” value ([1]; 1 × 10^–6 M) was 441 ± 81 nm, the IC50 (A549 cells [2]) was >100 * μg/mL and the cytotoxic activity (A549 cells [2]) was “did not show statistically significant cytotoxic activity”. The IC50 (LEC cells) was >100 * μg/mL, the cytotoxic activity (LEC cells) was “did not show statistically significant cytotoxic activity” and the “change of toxicity on combined action with GIS” value (A549 cells [3]) was “slight decrease in toxicity”.
With `C[N+](C)(CCCNC(=O)COc1cc2c(OCC(=O)NCCC[N+](C)(C)CC(=O)NCC(=O)NCC(=O)[O-])cc1Cc1cc(OCC(=O)NCCC[N+](C)(C)CC(=O)NCC(=O)NCC(=O)[O-])c(cc1OCC(=O)NCCC[N+](C)(C)CC(=O)NCC(=O)NCC(=O)[O-])Cc1cc(OCC(=O)NCCC[N+](C)(C)CC(=O)NCC(=O)NCC(=O)[O-])c(cc1OCC(=O)NCCC[N+](C)(C)CC(=O)NCC(=O)NCC(=O)[O-])Cc1cc(OCC(=O)NCCC[N+](C)(C)CC(=O)NCC(=O)NCC(=O)[O-])c(cc1OCC(=O)NCCC[N+](C)(C)CC(=O)NCC(=O)NCC(=O)[O-])Cc1cc(OCC(=O)NCCC[N+](C)(C)CC(=O)NCC(=O)NCC(=O)[O-])c(cc1OCC(=O)NCCC[N+](C)(C)CC(=O)NCC(=O)NCC(=O)[O-])C2)CC(=O)NCC(=O)NCC(=O)[O-]` [Compound 3] the “polydispersity index (PDI)” value ([1]; 1 × 10^–4 M) was 0.55, the “size of aggregates d” value ([1]; 1 × 10^–4 M) was 565 ± 12 nm and the “polydispersity index (PDI)” value ([1]; 1 × 10^–5 M) was 0.43. For the same molecule, the “size of aggregates d” value ([1]; 1 × 10^–5 M) was 290 ± 38 nm, the “polydispersity index (PDI)” value ([1]; 1 × 10^–6 M) was 0.39 and the “size of aggregates d” value ([1]; 1 × 10^–6 M) was 276 ± 63 nm. For the same molecule, the IC50 (A549 cells [2]) was >100 * μg/mL, the cytotoxic activity (A549 cells [2]) was “did not show statistically significant cytotoxic activity” and the IC50 (LEC cells) was >100 * μg/mL. The cytotoxic activity (LEC cells) was “did not show statistically significant cytotoxic activity” and the “change of toxicity on combined action with GIS” value (A549 cells [3]) was “No significant differences”.
With `CC(C)N.O=C(O)CNCP(=O)(O)O` [GIS, glyphosate isopropylamine salt, reference compound] the “lgKa, logarithm of the association constant with DNA” value (DNA from salmon sperm) was 4.92, the “concentration at which cytotoxic effect was recorded” value (A549 cells [2]; A549) was ≥ 10000 µg/mL and the “concentration without ability to reduce viability” value (A549 cells [2]; A549) was ≤ 5000 µg/mL. The IC50 (A549 cells [2]) was 10,180 μg/mL, the “concentration at which cytotoxic effect was recorded” value (LEC cells) was ≥ 10000 µg/mL and the “concentration without ability to reduce viability” value (LEC cells) was ≤ 5000 µg/mL. The IC50 (LEC cells) was 11,430 μg/mL.
